Assay results taken from ChEMBL document CHEMBL3734721 (J Med Chem, 2015).
pEC50, pIC50: −log10 of the molar value. ≈ marks a conversion by molar mass, not a printed value.

What was measured:
HepG2 = experiment: Cytotoxicity against human HepG2 cells; format: cell-based
[1] = Chemical stability of compound in 0.1N HCL assessed as compound remaining at 10 mg/ml after 1 day; format: physicochemical; conditions: read-out: Stability
[2] = Fraction unbound in rat plasma at 5 uM after 4.5 hrs by LC-MS/MS analysis; format: ADME, cell-free
[3] = biological target: T1, 5-hydroxytryptamine receptor 6 (Homo sapiens, UniProt P50406); experiment: Antagonist activity at human 5-HT6 receptor expressed in 1321N1 cells assessed as seretonin-induced cAMP by HTRF assay; format: functional, cell-based
T1 sequence (P50406 whole entry): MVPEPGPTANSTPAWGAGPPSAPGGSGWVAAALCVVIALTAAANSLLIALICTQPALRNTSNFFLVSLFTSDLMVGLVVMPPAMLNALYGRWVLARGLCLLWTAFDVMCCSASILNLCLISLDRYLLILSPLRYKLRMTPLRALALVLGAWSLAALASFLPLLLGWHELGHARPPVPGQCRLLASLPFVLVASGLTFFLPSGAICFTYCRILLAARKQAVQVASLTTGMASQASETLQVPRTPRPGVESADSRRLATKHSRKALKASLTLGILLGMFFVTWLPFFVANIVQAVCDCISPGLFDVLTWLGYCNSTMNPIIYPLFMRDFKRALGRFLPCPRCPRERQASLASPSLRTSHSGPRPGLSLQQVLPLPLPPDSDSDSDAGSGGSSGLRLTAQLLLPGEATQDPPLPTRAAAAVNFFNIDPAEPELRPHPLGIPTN

[4] = biological target: T1, 5-hydroxytryptamine receptor 6; experiment: Agonist activity at human 5-HT6 receptor expressed in 1321N1 cells assessed as cAMP by HTRF assay; format: functional, cell-based
[5] = Cmax in Swiss mouse brain at 5 mg/kg, sc; format: ADME, organism-based; set-up: dose 5 mg/kg, route subcutaneous
[6] = Chemical stability of compound in 0.1N NaOH assessed as compound remaining at 10 mg/ml after 2 days; format: physicochemical; conditions: read-out: Stability
[7] = Fraction unbound in human plasma at 5 uM after 4.5 hrs by LC-MS/MS analysis; format: ADME, cell-free
[8] = Ratio of drug level in brain to plasma in Swiss mouse at 5 mg/kg, sc; format: ADME, organism-based; conditions: read-out: BPR
Cytochrome P450 2C9 = Cytochrome P450 2C9 (Homo sapiens, UniProt P11712); experiment: Inhibition of human CYP2C9 by LC-MS analysis; format: ADME
Cytochrome P450 2C9, sequence (P11712 whole entry): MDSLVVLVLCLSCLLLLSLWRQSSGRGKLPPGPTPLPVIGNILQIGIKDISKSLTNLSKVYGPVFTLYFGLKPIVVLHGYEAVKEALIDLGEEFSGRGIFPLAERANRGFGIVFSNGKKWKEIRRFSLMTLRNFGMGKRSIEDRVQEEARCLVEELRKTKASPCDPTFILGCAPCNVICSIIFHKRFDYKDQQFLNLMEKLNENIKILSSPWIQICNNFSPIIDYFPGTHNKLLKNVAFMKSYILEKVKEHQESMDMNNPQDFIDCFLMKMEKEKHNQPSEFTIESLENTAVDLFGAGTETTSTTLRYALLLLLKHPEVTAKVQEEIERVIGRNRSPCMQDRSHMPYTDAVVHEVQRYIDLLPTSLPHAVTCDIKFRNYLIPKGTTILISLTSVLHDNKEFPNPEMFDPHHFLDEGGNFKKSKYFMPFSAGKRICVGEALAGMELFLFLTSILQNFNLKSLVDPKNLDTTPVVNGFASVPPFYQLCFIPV

human MDR1 = experiment: Permeability across apical to basolateral in MDCK expressing human MDR1 at 5 uM by LC-MS/MS method; format: ADME, cell-based, Canis lupus familiaris; conditions: dog, read-out: permeability
[9] = biological target: T2, 5-hydroxytryptamine receptor 7 (Homo sapiens, UniProt P34969); experiment: Antagonist activity at human wild-type 5-HT7 receptor expressed in HEK cells assessed as seretonin-induced cAMP by HTRF assay; format: functional, cell-based, HEK293
T2 sequence (P34969 whole entry): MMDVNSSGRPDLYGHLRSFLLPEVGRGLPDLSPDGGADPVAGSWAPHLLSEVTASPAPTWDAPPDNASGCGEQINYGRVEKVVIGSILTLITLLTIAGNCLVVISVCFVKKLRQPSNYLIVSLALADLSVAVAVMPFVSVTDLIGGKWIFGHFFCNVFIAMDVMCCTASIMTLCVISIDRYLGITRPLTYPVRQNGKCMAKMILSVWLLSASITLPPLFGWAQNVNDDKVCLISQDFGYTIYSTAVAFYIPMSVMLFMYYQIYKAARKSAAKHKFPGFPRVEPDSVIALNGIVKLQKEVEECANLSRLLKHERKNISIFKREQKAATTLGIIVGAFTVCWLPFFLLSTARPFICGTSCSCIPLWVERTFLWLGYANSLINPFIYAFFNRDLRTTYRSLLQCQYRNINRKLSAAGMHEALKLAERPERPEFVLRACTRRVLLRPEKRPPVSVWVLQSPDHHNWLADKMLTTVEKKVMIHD

[10] = Chemical stability of compound in 0.1N HCL and 0.5% H2O2 assessed as compound remaining at 10 mg/ml after 1 day; format: physicochemical; conditions: read-out: Stability
[11] = Chemical stability of compound in DMSO assessed as compound remaining at 10 mg/ml after 1 day at room temperature; format: physicochemical; conditions: read-out: Stability
[12] = Chemical stability of compound in 0.1N NaOH assessed as compound remaining at 10 mg/ml after 1 day; format: physicochemical; conditions: read-out: Stability
[13] = Chemical stability of compound in buffer at pH 7.4 assessed as compound remaining at 10 mg/ml after 1 day; format: physicochemical; conditions: read-out: Stability
Cytochrome P450 2C19 = Cytochrome P450 2C19 (Homo sapiens, UniProt P33261); experiment: Inhibition of human CYP2C19 by LC-MS analysis; format: ADME
Cytochrome P450 2C19, sequence (P33261 whole entry): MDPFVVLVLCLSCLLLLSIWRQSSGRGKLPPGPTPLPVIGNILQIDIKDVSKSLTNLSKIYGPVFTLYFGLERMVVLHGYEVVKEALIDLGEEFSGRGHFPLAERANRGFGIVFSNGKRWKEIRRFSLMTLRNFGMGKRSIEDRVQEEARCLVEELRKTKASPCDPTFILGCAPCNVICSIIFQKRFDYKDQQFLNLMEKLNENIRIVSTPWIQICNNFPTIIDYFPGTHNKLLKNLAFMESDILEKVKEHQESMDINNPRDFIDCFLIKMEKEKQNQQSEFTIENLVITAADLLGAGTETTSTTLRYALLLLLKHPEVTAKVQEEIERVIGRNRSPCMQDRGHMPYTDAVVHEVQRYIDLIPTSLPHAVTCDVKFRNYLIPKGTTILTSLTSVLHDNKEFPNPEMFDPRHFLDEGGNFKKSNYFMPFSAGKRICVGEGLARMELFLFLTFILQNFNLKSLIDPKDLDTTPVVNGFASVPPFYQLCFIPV

[14] = Fraction unbound in mouse plasma at 5 uM after 4.5 hrs by LC-MS/MS analysis; format: ADME, cell-free
[15] = biological target: T2, 5-hydroxytryptamine receptor 7; experiment: Agonist activity at human wild-type 5-HT7 receptor expressed in HEK cells assessed as cAMP by HTRF assay; format: functional, cell-based, HEK293
[16] = Kinetic solubility of compound in phosphate buffer at pH 7.4 for 4 hrs by UPLC/UV analysis; format: physicochemical; conditions: read-out: Kinetic_solubility
[17] = Chemical stability of compound in DMSO assessed as compound remaining at 10 mg/ml after 2 days at room temperature; format: physicochemical; conditions: read-out: Stability
Cytochrome P450 1A2 = biological target: T3, Cytochrome P450 1A2 (Homo sapiens, UniProt P05177); experiment: Inhibition of human CYP1A2 by LC-MS analysis; format: ADME
T3 sequence (P05177 whole entry): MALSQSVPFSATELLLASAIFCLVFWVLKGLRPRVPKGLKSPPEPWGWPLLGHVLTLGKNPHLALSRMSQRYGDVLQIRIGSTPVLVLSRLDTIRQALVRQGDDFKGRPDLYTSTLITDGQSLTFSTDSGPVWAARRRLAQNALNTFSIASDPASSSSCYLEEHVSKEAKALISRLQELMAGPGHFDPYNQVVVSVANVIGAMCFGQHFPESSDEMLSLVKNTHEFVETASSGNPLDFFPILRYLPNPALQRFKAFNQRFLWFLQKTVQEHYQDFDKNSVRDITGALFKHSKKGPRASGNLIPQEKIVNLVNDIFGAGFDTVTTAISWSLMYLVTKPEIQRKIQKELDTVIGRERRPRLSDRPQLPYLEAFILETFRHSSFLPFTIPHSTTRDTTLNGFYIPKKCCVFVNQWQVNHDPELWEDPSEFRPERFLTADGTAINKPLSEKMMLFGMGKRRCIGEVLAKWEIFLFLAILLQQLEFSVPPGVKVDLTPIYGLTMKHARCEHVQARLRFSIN

[18] = Chemical stability of compound in DMSO assessed as compound remaining at 10 mg/ml after 24 days at room temperature under air; format: physicochemical; conditions: read-out: Stability
Cytochrome P450 2C8 = biological target: T4, Cytochrome P450 2C8 (Homo sapiens, UniProt P10632); experiment: Inhibition of human CYP2C8 by LC-MS analysis; format: ADME
T4 sequence (P10632 whole entry): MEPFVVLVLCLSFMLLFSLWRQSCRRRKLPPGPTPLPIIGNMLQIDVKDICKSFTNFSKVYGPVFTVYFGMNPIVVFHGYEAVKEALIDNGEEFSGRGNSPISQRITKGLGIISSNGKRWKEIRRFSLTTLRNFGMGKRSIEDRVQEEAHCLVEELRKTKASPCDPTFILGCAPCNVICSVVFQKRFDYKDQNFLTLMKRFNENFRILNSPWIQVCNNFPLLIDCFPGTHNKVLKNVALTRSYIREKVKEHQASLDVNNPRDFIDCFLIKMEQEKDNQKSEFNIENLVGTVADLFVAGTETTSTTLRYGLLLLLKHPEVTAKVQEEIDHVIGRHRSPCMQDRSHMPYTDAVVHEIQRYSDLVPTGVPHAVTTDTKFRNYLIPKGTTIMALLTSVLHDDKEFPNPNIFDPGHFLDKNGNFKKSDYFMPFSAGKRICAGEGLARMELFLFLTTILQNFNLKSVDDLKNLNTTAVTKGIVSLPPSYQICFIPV

[19] = Chemical stability of compound in buffer at pH 7.4 assessed as compound remaining at 10 mg/ml after 2 days; format: physicochemical; conditions: read-out: Stability
[20] = Fraction unbound in rat brain at 5 uM after 5 hrs by LC-MS/MS analysis; format: ADME, tissue-based

Q: For CC(C)NCC(O)COc1cccc2ccccc12 (stereo unspecified) [PROPRANOLOL], which EC20 (HepG2) is on record?
A: Its EC20 is over 100 µM.

Q: And the remaining at 24 h, 10 mg/ml [1]?
A: Its remaining at 24 h, 10 mg/ml is 100%.

Q: What about the fraction unbound at 4.5 h, 5 µM [2] of the same compound?
A: The fraction unbound at 4.5 h, 5 µM was 0.239.

Q: And the pIC50 [3]?
A: The pIC50 was under 5.30.

Q: And the pEC50 [4]?
A: Its pEC50 is under 5.30.

Q: What about the Cmax [5] of the same compound?
A: Its Cmax is 16 µM.

Q: And the remaining at 48 h, 10 mg/ml [6]?
A: Its remaining at 48 h, 10 mg/ml is 100%.

Q: And the fraction unbound at 4.5 h, 5 µM [7]?
A: The fraction unbound at 4.5 h, 5 µM was 0.421.

Q: And the Kp [8]?
A: Its Kp is 23.

Q: And the pIC50 (Cytochrome P450 2C9)?
A: The pIC50 was under 5.00.

Q: And the Papp A→B at 5 µM (human MDR1)?
A: The Papp A→B at 5 µM was 3.5 ×10⁻⁶ cm/s.

Q: What about the pIC50 [9] of the same compound?
A: The pIC50 was under 5.30.

Q: And the remaining at 24 h, 10 mg/ml [10]?
A: Its remaining at 24 h, 10 mg/ml is 100%.

Q: And the remaining at 24 h, 10 mg/ml [11]?
A: The remaining at 24 h, 10 mg/ml was 100%.

Q: What about the remaining at 24 h, 10 mg/ml [12] of the same compound?
A: Its remaining at 24 h, 10 mg/ml is 100%.

Q: And the remaining at 24 h, 10 mg/ml [13]?
A: Its remaining at 24 h, 10 mg/ml is 100%.

Q: What about the pIC50 (Cytochrome P450 2C19) of the same compound?
A: The pIC50 was under 5.00.

Q: And the fraction unbound at 4.5 h, 5 µM [14]?
A: Its fraction unbound at 4.5 h, 5 µM is 0.212.

Q: What about the pEC50 [15] of the same compound?
A: The pEC50 was under 5.30.

Q: And the solubility kinetic at 4 h [16]?
A: The solubility kinetic at 4 h was 764 µM (≈ 198 µg/mL).

Q: What about the remaining at 48 h, 10 mg/ml [17] of the same compound?
A: Its remaining at 48 h, 10 mg/ml is 100%.

Q: And the pIC50 (Cytochrome P450 1A2)?
A: The pIC50 was under 5.00.

Q: What about the remaining at 576 h, 10 mg/ml [18] of the same compound?
A: The remaining at 576 h, 10 mg/ml was 100%.

Q: What about the pIC50 (Cytochrome P450 2C8) of the same compound?
A: The pIC50 was under 5.00.

Q: What about the remaining at 48 h, 10 mg/ml [19] of the same compound?
A: Its remaining at 48 h, 10 mg/ml is 100%.

Q: And the fraction unbound at 5 h, 5 µM [20]?
A: Its fraction unbound at 5 h, 5 µM is 0.028.
